Measurements taken from ChEMBL document CHEMBL1201862, “PubChem BioAssay data set” (2004).
Calls of active or inactive are those of the source.

Key:
[1] = target: T1, Polyadenylate-binding protein 1 (Homo sapiens, UniProt P11940); assay: MLLE binding blockers, Cy5 peptide tracer – biochemical, fluorescence polarization, Cy5-PAM2 peptide, secondary, miRNA deadenylation inhibitor project, dose response (AID 602260); type: functional; details: read-out: IC50_Mean
[2] = target: T1, Polyadenylate-binding protein 1; assay: MLLE domain peptide-binding blockers, IC50 – biochemical, fluorescence polarization, FITC-PAM2 peptide, dose response (AID 602259); type: functional; details: read-out: IC50_Mean
[3] = target: Heat shock protein HSP 90-alpha (Homo sapiens, UniProt P07900); type: functional, organism-based
Fatty acid synthase [4] = target: T2, Fatty acid synthase (Homo sapiens, UniProt P49327); assay: inhibition of human FAS-TE enzyme activity – biochemical, endpoint fluorescence intensity, uHTS hits, dose response (AID 624327); type: functional;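 note: fluorescence from hydrolysis of an O-methyl fluorescein acyl ester substrate by the enzyme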
Fatty acid synthase [5] = target: T2, Fatty acid synthase; assay: inhibition of human FAS-TE enzyme activity – biochemical, kinetic fluorescence intensity, dose response (AID 624326); type: functional;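 note: rate of fluorescence rise from hydrolysis of a fluorogenic O-methyl fluorescein ester substrate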
[6] = target: T3, High affinity choline transporter 1 (Homo sapiens, UniProt Q9GZV3); assay: human choline transporter blockers, potency – cell-based, 5-point CRC, membrane potential dye, dose response (AID 504840); type: functional
T3 sequence (Q9GZV3 whole entry): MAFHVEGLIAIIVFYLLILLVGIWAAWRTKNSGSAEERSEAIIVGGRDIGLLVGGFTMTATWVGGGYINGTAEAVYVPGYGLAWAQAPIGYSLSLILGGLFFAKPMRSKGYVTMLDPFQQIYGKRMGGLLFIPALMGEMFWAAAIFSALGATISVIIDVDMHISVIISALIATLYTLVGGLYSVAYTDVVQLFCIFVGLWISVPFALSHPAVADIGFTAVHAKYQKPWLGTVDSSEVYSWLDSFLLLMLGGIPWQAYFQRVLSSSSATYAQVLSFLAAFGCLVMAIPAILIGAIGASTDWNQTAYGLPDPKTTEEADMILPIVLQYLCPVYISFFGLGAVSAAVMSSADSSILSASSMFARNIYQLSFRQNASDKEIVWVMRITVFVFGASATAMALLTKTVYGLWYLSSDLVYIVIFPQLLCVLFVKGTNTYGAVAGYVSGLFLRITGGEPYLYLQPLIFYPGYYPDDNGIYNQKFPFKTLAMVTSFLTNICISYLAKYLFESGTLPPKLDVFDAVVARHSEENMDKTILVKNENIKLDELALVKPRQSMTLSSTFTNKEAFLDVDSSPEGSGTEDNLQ

[7] = target: Luciferin 4-monooxygenase (Photinus pyralis, UniProt P08659); assay: inhibition of purified Photinus pyralis luciferase – biochemical, luminescence, dose response (AID 1891)
[8] = Luminescence Cell-Based Dose Confirmation HTS to Identify Inhibitors of Platelet Dense Granule Release. [Related pubchem assays: 1663 (Primary HTS), 1678 (Summary of Project)]; type: functional
[9] = target: T4, Carboxy-terminal domain RNA polymerase II polypeptide A small phosphatase 1 (Homo sapiens, UniProt Q9GZU7); assay: CTDSP1 inhibitors, concentration-response, biochemical, absorbance readout, ultra-high-throughput screen actives (AID 540297); type: functional
T4 sequence (Q9GZU7 whole entry): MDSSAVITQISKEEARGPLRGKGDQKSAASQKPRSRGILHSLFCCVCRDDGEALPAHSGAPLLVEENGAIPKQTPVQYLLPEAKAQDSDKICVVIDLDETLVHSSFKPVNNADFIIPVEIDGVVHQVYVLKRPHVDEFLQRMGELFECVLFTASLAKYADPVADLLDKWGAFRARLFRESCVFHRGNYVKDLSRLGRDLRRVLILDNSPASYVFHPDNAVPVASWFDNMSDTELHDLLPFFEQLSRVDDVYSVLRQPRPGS

T2 sequence (P49327 whole entry): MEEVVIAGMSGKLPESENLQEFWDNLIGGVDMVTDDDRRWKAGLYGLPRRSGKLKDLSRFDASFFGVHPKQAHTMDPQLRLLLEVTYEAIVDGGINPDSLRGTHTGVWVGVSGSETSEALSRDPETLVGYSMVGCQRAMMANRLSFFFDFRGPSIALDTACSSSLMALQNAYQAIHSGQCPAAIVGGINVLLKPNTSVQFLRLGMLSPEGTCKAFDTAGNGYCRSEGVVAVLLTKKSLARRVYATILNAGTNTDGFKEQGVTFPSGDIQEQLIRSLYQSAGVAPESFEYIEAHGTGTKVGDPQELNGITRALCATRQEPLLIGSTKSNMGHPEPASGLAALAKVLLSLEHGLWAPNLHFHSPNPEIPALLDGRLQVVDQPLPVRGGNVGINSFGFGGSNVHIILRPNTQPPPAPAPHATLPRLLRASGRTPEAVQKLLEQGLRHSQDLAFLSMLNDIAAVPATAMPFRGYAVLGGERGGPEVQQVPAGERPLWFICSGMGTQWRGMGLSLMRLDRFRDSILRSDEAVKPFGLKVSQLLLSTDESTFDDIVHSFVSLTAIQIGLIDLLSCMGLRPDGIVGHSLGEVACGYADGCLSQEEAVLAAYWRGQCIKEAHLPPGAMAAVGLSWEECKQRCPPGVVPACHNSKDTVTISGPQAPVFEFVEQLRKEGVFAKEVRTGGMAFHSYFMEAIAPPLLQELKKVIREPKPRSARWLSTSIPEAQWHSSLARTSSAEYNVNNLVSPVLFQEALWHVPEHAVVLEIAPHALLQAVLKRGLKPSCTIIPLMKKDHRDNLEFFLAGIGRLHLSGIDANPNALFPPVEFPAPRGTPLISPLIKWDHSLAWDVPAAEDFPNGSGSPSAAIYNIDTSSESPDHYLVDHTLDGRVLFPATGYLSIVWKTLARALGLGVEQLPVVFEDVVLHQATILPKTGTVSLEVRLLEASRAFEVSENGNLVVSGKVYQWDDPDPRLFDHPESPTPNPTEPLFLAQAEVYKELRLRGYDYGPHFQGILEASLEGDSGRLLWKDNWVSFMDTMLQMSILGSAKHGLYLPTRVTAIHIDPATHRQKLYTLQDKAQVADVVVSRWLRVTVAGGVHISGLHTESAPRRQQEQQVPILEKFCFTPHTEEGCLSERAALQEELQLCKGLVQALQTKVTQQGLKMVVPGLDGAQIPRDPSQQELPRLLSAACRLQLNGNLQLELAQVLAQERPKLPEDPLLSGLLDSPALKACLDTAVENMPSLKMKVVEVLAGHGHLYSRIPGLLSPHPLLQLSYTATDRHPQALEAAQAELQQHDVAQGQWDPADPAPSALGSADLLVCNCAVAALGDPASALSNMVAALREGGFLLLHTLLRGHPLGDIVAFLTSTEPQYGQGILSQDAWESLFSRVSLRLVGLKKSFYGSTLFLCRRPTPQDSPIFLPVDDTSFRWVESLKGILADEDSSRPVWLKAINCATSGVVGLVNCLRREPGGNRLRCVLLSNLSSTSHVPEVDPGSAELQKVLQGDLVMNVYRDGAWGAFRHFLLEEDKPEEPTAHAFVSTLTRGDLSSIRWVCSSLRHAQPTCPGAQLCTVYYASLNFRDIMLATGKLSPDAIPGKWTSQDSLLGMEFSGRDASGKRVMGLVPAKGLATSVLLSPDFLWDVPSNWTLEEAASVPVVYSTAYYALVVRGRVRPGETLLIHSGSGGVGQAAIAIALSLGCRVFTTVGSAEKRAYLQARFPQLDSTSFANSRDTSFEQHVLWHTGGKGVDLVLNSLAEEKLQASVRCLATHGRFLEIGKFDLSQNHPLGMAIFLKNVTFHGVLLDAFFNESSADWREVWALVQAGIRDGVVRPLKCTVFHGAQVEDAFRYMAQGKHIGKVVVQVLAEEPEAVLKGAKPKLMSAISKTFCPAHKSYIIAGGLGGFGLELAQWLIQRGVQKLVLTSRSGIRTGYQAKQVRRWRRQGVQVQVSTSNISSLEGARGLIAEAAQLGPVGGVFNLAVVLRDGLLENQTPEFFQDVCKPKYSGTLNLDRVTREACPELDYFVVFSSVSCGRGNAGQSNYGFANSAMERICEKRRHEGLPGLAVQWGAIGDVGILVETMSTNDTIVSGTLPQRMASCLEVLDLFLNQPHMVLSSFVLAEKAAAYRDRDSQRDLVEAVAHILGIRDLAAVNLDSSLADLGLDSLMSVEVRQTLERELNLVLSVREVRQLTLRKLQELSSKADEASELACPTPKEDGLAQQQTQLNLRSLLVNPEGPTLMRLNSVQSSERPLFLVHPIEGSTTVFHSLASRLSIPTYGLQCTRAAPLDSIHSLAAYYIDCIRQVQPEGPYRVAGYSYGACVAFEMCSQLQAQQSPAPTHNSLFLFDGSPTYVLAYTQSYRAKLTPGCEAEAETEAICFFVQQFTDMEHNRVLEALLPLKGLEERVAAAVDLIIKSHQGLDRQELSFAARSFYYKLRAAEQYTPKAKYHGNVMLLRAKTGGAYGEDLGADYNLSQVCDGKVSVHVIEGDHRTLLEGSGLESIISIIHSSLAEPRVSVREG
T1 sequence (P11940 whole entry, the tested form may be a part): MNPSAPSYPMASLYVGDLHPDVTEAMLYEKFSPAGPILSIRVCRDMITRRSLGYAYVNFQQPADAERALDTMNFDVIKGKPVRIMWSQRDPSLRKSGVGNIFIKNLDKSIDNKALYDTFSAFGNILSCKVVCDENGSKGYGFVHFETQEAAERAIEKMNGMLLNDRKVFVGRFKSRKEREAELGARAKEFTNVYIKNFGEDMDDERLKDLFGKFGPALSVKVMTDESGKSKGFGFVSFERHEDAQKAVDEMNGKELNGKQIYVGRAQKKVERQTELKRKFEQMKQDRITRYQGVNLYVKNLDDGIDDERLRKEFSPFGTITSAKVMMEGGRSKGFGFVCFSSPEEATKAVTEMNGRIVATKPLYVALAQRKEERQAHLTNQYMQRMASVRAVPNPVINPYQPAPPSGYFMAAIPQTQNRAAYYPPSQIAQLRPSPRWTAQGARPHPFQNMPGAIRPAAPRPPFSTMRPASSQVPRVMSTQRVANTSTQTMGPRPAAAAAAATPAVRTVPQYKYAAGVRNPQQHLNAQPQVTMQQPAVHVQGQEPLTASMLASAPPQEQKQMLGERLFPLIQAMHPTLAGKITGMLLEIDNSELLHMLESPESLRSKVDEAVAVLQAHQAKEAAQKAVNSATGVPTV
Luciferin 4-monooxygenase, sequence (P08659 whole entry): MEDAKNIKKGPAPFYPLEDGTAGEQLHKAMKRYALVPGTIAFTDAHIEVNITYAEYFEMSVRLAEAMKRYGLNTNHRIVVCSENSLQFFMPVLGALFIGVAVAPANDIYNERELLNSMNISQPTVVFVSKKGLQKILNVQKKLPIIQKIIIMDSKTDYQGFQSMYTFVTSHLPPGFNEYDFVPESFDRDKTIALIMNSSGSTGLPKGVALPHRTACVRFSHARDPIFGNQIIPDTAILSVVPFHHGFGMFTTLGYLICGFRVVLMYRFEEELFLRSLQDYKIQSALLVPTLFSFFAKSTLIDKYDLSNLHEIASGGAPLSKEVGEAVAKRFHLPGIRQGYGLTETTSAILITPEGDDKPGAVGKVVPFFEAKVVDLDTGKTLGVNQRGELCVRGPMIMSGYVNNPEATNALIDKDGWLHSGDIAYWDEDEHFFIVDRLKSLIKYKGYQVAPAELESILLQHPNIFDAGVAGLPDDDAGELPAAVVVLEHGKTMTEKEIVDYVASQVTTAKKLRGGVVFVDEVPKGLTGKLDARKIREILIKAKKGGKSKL

## CC(=O)c1ccc(OCCCC(=O)NC2=NCCS2)cc1
[1]
  IC50: > 66 µM (inactive)
[2]
  IC50: > 66 µM (inactive)

## CCc1ccccc1NC(=O)c1cccc(Oc2ccc([N+](=O)[O-])cc2Cl)c1
[3]
  AC50: 4.35 µM (active)

## COc1ccc(N2CCN(C(=O)CSc3ccc([N+](=O)[O-])cc3)CC2)cc1
Fatty acid synthase [4]
  IC50: 21.1 µM (inactive)
Fatty acid synthase [5]
  IC50: 12.9 µM (active)

## Cc1ccc(NC(S)=NNC(=O)c2cccc([N+](=O)[O-])c2)cc1Cl
[6]
  IC50: 12.6 µM (active)

## CC(=O)c1c2c3c(c(Br)ccc3n(C)c1=O)C(=O)c1ccccc1-2
[7]
  EC50: > 112 µM (not active)
[8]
  EC50: > 112 µM (not active)
[1]
  IC50: 45.8 µM (inactive)
[2]
  IC50: 37.5 µM (inactive)

## CC(C)(CCC(=S)N1CCOCC1)C1CCCCC1
[1]
  IC50: > 66 µM (inactive)
[2]
  IC50: > 66 µM (inactive)

## CCOC(=O)c1c(NC(=O)CCN2C(=O)c3cccc([N+](=O)[O-])c3C2=O)sc(C(=O)OC(C)C)c1C
[6]
  IC50: 12.6 µM (active)

## COc1ccc(N2CCN(C(=O)Cc3ccc(S(=O)(=O)N4CCOCC4)s3)CC2)cc1
[9]
  IC50: 6.08 µM (active)

## COc1ccc(/C=C(\NC(=O)c2ccc([N+](=O)[O-])cc2)C(=O)NCCCN2CCOCC2)cc1
Fatty acid synthase [4]
  IC50: 4.51 µM (active)
Fatty acid synthase [5]
  IC50: 2.95 µM (active)

## COc1ccc(NC(=O)CN(C)C(=O)/C=C/c2cn(Cc3ccccc3)nc2-c2cccnc2)cc1
[9]
  IC50: 8.74 µM (active)

## Cc1ccc(NC(=O)/C=C/c2ccco2)nc1
[9]
  IC50: 11.7 µM (active)

## CC(=O)OC1C(=O)OCC23CCC4(C)OC4C2OC2CC(OC(=O)C=CC=CC(=O)OCCC1C)C3(C)C21CO1 (stereo not given)
[3]
  AC50: 2.3 µM (active)

## CCOC(=O)C1=C(C)N=c2s/c(=C\c3ccc(C(=O)O)cc3)c(=O)n2C1c1ccc(OC)cc1OC (stereo not given)
[9]
  IC50: 7.72 µM (active)
